# In patent US10829499B2, “Tetracyclic heterocycle compounds useful as HIV integrase inhibitors” (MERCK SHARP & DOHME CORP., priority 2016, dated 2020):
# Read-outs that look alike come from different tables or passages of the source.
# Test system: HIV-1 (NL4-3 strain)
# Test: Assay for Inhibition of HIV Replication (kinetic assay, MT4-gag-GFP reporter cell line; VIKING)
# Assay type: cell-based
# Experimental: This assay is a kinetic assay that employs a reporter cell line (MT4-gag-GFP) to quantify the number of new cells infected in each round of replication.
# MT4-GFP cells (250,000 cells/ml) were bulk-infected with HIV-1 (NL4-3 strain) at low multiplicity of infection (MOI) in RPMI cell culture medium+10% FBS for 24 hours. Cells were then washed once in RPMI cell culture medium+10% FBS and resuspended in RPMI cell culture medium+0% or 10% or 100% normal human serum (NHS). Test compounds were serial-diluted in DMSO on an ECHO® liquid handler. The infected MT4-GFP cells were added to a 384-well poly-D-lysine coated black plate with clear bottom in which the diluted test compounds were placed. The cells were seeded at 8,000 cells per well and the final DMSO concentration was 0.4%. The infected cells (Green GFP cells) were quantified at both 24 and 48 hours post incubation using Acumen eX3. Viral reproductive ratio (R0) was determined using the number of infected cells at 48 hours divided by the number of infected cells at 24 hours. Percent viral growth inhibition was calculated by [1-(R-Rtripledrug),/(RDMSO-Rtripledrug)]*100. Compound potency IP or IC50 was determined by a 4-parameter dose response curve analysis. In vitro potency in the cell-based assay in the absence of normal human serum (NHS) and the presence of 100% NHS.
# [1] = MT4-GFP cells infected with HIV-1 NL4-3, 0% normal human serum (NHS), read-out: VIKING IP50 (nM) with 0% NHS
# [2] = MT4-GFP cells infected with HIV-1 NL4-3, 100% normal human serum (NHS), read-out: VIKING IP50 (nM) with 100% NHS
# [3] = Human immunodeficiency virus 1, NL43, MT4-GFP cells infected with HIV-1 NL4-3, 0% normal human serum (NHS), read-out: VIKING IP50 (nM) with 0% NHS
# [4] = Human immunodeficiency virus 1, NL43, MT4-GFP cells infected with HIV-1 NL4-3, 100% normal human serum (NHS), read-out: VIKING IP50 (nM) with 100% NHS
SMILES,IC50 [1] [nM],IC50 [2] [nM],IC50 [3] [nM],IC50 [4] [nM]
CCNC1CC2C3OCCCN3C(=O)c3c(O)c(=O)c(C(=O)NCc4ccc(F)cc4F)c1n32 (centres unmarked) [Compound 207],5.21,140,,
"O=C(NCc1c(F)cccc1F)c1c2n3c(c(O)c1=O)C(=O)N1CCOC1C3CC2 (single isomer, unassigned) [Compound 15]",0.609,373,,
C[C@H]1CN2C(=O)c3c(O)c(=O)c(-c4nnc(Cc5ccc(F)cc5F)s4)c4n3C(CC4)C2N1 (some centres unmarked) [Compound 130],,92.8,3.53,
"C[C@H]1CN2C(=O)c3c(O)c(=O)c(C(=O)NCc4cccc(Cl)c4F)c4n3C(CC4)C2O1 (single isomer, unassigned) [Compound 43]",1.06,18.2,,
"O=C(NCc1ccc(F)cc1F)c1c2n3c(c(O)c1=O)C(=O)N1CCCCOC1C3CC2 (single isomer, unassigned) [Compound 70]",1.12,3920,,
"COC1CC2C3OCCN3C(=O)c3c(O)c(=O)c(C(=O)NCc4ccc(F)cc4F)c1n32 (single isomer, unassigned) [Compound 76]",1.01,17.8,,
"CN1CCCN2C(=O)c3c(O)c(=O)c(C(=O)NCc4cccc(Cl)c4F)c4n3C(CC4)C12 (single isomer, unassigned) [Compound 87]",0.875,1000,,
"O=C(NCc1ccc(F)cc1)c1c2n3c(c(O)c1=O)C(=O)N1CCCOC1C3CC2 (single isomer, unassigned) [Compound 53]",0.963,393,,
"O=C(NCc1ccccc1F)c1c2n3c(c(O)c1=O)C(=O)N1CCOC1C3CC2 (single isomer, unassigned) [Compound 12]",1.39,892,,
"O=C(NCc1ccc(F)cc1)c1c2n3c(c(O)c1=O)C(=O)N1CCCOC1C3CC2 (single isomer, unassigned) [Compound 51]",,32.6,1.25,
CN1CCCN2C(=O)c3c(O)c(=O)c(C(=O)NCc4ccc(F)cc4F)c4n3C(CC4)C12 (centres unmarked) [Compound 80],,,0.662,13.8
"C[C@H]1CCOC2C3CCc4c(C(=O)NCc5ccc(F)cc5F)c(=O)c(O)c(n43)C(=O)N21 (single isomer, unassigned) [Compound 63]",3.09,127,,
CCNC1CC2C3OCCCN3C(=O)c3c(O)c(=O)c(C(=O)NCc4cccc(F)c4F)c1n32 (centres unmarked) [Compound 191],12.6,63.6,,
"CN1CCCN2C(=O)c3c(O)c(=O)c(C(=O)NCc4ccc(F)cc4F)c4n3C(CC4)C12 (single isomer, unassigned) [Compound 82]",1.17,550,,
"CN1CCCN2C(=O)c3c(O)c(=O)c(C(=O)NCc4cccc(Cl)c4F)c4n3C(CC4)C12 (single isomer, unassigned) [Compound 86]",0.426,9.17,,
CCNC1CC2C3OCCCN3C(=O)c3c(O)c(=O)c(C(=O)NCc4ccc(F)cc4F)c1n32 (centres unmarked) [Compound 202],7.73,39.4,,
C[C@@H]1CN2C(=O)c3c(O)c(=O)c(C(=O)NCc4cccc(Cl)c4F)c4n3C(CC4)C2O1 (some centres unmarked) [Compound 38],,,0.543,46.4
"COC1CC2C3OCCN3C(=O)c3c(O)c(=O)c(C(=O)NCc4ccc(F)cc4F)c1n32 (single isomer, unassigned) [Compound 75]",4.99,6180,,
O=C(NCc1cccc(F)c1F)c1c2n3c(c(O)c1=O)C(=O)N1C4CCC(C4)OC1C3CC2 (centres unmarked) [Compound 167],3.78,3390,,
"O=C(NCc1ccc(F)c(Cl)c1)c1c2n3c(c(O)c1=O)C(=O)N1CCOC1C3CC2 (single isomer, unassigned) [Compound 25]",0.809,2540,,
O=C(NCc1cccc(Cl)c1F)c1c2n3c(c(O)c1=O)C(=O)N1C4CCC(C4)OC1C3CC2 (centres unmarked) [Compound 152],,2100,5.52,
"O=C(NCc1c(F)cc(F)cc1F)c1c2n3c(c(O)c1=O)C(=O)N1CCOC1C3CC2 (single isomer, unassigned) [Compound 20]",0.727,602,,
C[C@H]1CNC2C3CCc4c(C(=O)NCc5cccc(Cl)c5F)c(=O)c(O)c(n43)C(=O)N21 (some centres unmarked) [Compound 89],0.709,120,,
"CN1CCCN2C(=O)c3c(O)c(=O)c(C(=O)NCc4cccc(Cl)c4F)c4n3C(CC4)C12 (single isomer, unassigned) [Compound 85]",0.703,17.8,,
"C[C@@H]1COC2C3CCc4c(C(=O)NCc5cccc(Cl)c5F)c(=O)c(O)c(n43)C(=O)N21 (single isomer, unassigned) [Compound 37]",0.546,1690,,

SMILES,IC50 [1] [nM],IC50 [2] [nM],IC50 [3] [nM],IC50 [4] [nM]
CC(=O)N1C2C3CCc4c(C(=O)NCc5cccc(Cl)c5F)c(=O)c(O)c(n43)C(=O)N2C[C@@H]1C (some centres unmarked) [Compound 123],2.56,58.6,,
"O=C(NCc1ccc(F)cc1F)c1c2n3c(c(O)c1=O)C(=O)N1CCCOC1C3CC2 (single isomer, unassigned) [Compound 57]",0.919,871,,
"O=C(NCc1ccccc1F)c1c2n3c(c(O)c1=O)C(=O)N1CCOC1C3CC2 (single isomer, unassigned) [Compound 13]",0.827,5520,,
"O=C(NCc1c(F)cccc1F)c1c2n3c(c(O)c1=O)C(=O)N1CCOC1C3CC2 (single isomer, unassigned) [Compound 17]",7.09,7940,,
"O=C(NCc1c(F)cc(F)cc1F)c1c2n3c(c(O)c1=O)C(=O)N1CCOC1C3CC2 (single isomer, unassigned) [Compound 18]",,,0.483,8000
"O=C(NCc1cccc(Cl)c1F)c1c2n3c(c(O)c1=O)C(=O)N1CCCO[C@@H]1[C@@H]3CC2 (single isomer, unassigned) [Compound 48]",,,1.31,27.3
CCNC1CC2C3OCCCN3C(=O)c3c(O)c(=O)c(C(=O)NCc4cccc(Cl)c4F)c1n32 (centres unmarked) [Compound 195],12.4,25.7,,
CCNC1CC2C3OCCCN3C(=O)c3c(O)c(=O)c(C(=O)NCc4c(F)cc(F)cc4F)c1n32 (centres unmarked) [Compound 183],13.3,3570,,
"C[C@H]1CN2C(=O)c3c(O)c(=O)c(C(=O)NCc4cccc(Cl)c4F)c4n3C(CC4)C2O1 (single isomer, unassigned) [Compound 45]",5.81,486,,
"O=C(NCc1cccc(Cl)c1F)c1c2n3c(c(O)c1=O)C(=O)N1CCCOC1C3CC2 (single isomer, unassigned) [Compound 49]",,,0.96,1190
CCNC1CC2C3OCCCN3C(=O)c3c(O)c(=O)c(C(=O)NCc4cccc(F)c4F)c1n32 (centres unmarked) [Compound 186],9.86,36.5,,
C[C@H]1CN(S(C)(=O)=O)C2C3CCc4c(C(=O)NCc5cccc(Cl)c5F)c(=O)c(O)c(n43)C(=O)N21 (some centres unmarked) [Compound 117],,,3.78,130
CCNC1CC2C3OCCCN3C(=O)c3c(O)c(=O)c(C(=O)NCc4cccc(Cl)c4F)c1n32 (centres unmarked) [Compound 199],7.12,42.9,,
C[C@H]1CN2C(=O)c3c(O)c(=O)c(C(=O)NCc4cccc(Cl)c4F)c4n3C(CC4)C2N1S(C)(=O)=O (some centres unmarked) [Compound 119],8.77,445,,
C[C@@H]1COC2C3CCc4c(C(=O)NCc5cccc(Cl)c5F)c(=O)c(O)c(n43)C(=O)N21 (some centres unmarked) [Compound 35],,,0.733,88.7
O=C(NCc1cccc(Cl)c1F)c1c2n3c(c(O)c1=O)C(=O)N1CCCO[C@H]1[C@H]3CC2 [Compound 47],,,2.39,2680
O=C(NCc1cccc(Cl)c1F)c1c2n3c(c(O)c1=O)C(=O)N1C4CCC(C4)OC1C3CC2 (centres unmarked) [Compound 154],4.14,79.2,,
O=C(NCc1c(F)cc(F)cc1F)c1c2n3c(c(O)c1=O)C(=O)N1C4CCC(C4)OC1C3CC2 (centres unmarked) [Compound 171],2.82,74.6,,
CCN1C[C@H](C)N2C(=O)c3c(O)c(=O)c(C(=O)NCc4cccc(Cl)c4F)c4n3C(CC4)C12 (some centres unmarked) [Compound 112],0.806,40.4,,
C[C@H]1CN2C(=O)c3c(O)c(=O)c(C(=O)NCc4cccc(Cl)c4F)c4n3C(CC4)C2O1 (some centres unmarked) [Compound 42],,,1.38,1570
CCNC1CC2C3OCCCN3C(=O)c3c(O)c(=O)c(C(=O)NCc4c(F)cc(F)cc4F)c1n32 (centres unmarked) [Compound 182],6.63,44.9,,
C[C@H]1CNC2C3CCc4c(C(=O)NCc5ccc(F)cc5F)c(=O)c(O)c(n43)C(=O)N21 (some centres unmarked) [Compound 100],1.94,56.5,,
CCN1C[C@H](C)N2C(=O)c3c(O)c(=O)c(C(=O)NCc4cccc(Cl)c4F)c4n3C(CC4)C12 (some centres unmarked) [Compound 111],,260,1.19,
C[C@H]1CN2C(=O)c3c(O)c(=O)c(C(=O)NCc4ccc(F)cc4F)c4n3C(CC4)C2N1 (some centres unmarked) [Compound 98],1.48,16,,
